Tested on: Jurkat T cells
Assay: mRNA sequencing of activated Jurkat T cells
Type: cell-based, human

C=CC[C@@H]1/C=C(\C)C[C@H](C)C[C@H](OC)[C@H]2O[C@@](O)(C(=O)C(=O)N3CCCC[C@H]3C(=O)O[C@H](/C(C)=C/[C@@H]3CC[C@@H](O)[C@H](OC)C3)[C@H](C)[C@@H](O)CC1=O)[C@H](C)C[C@@H]2OC [FK506, Tacrolimus, reference compound]
GPR108 FPKM (P+I): 31.682 FPKM
GPR183 FPKM (P+I): 5.776 FPKM
GRAP2 FPKM (P+I): 19.094 FPKM
GRK5 FPKM (P+I): 8.481 FPKM
GZMH FPKM (P+I): 7.694 FPKM
HAPLN3 FPKM (P+I): 48.4 FPKM
HDC FPKM (P+I): 26.3 FPKM
HHIP FPKM (P+I): 9.345 FPKM
HHIP-AS1 FPKM (P+I): 32.468 FPKM
HIVEP2 FPKM (P+I): 7.494 FPKM
HSP90B1 FPKM (P+I): 877.39 FPKM
HSP90B2P FPKM (P+I): 8.45 FPKM
HSPA5 FPKM (P+I): 373.499 FPKM
ICAM1 FPKM (P+I): 12.704 FPKM
ID2 FPKM (P+I): 13.425 FPKM
IER2 FPKM (P+I): 181.539 FPKM
IER3 FPKM (P+I): 31.73 FPKM
IFFO2 FPKM (P+I): 2.752 FPKM
IFIH1 FPKM (P+I): 11.544 FPKM
IFNG FPKM (P+I): 3.8 FPKM
IGLL1 FPKM (P+I): 3.429 FPKM
IGSF9B FPKM (P+I): 7.175 FPKM
IL2RA FPKM (P+I): 5.833 FPKM
IL3 FPKM (P+I): 0.062 FPKM
IL4I1 FPKM (P+I): 7.078 FPKM
IL16 FPKM (P+I): 10.552 FPKM
IL22 FPKM (P+I): 3.116 FPKM
IL23A FPKM (P+I): 12.207 FPKM
IMPA2 FPKM (P+I): 3.015 FPKM
IRF8 FPKM (P+I): 1.19 FPKM
IRF9 FPKM (P+I): 39.109 FPKM
ISM1 FPKM (P+I): 0.726 FPKM
JAK3 FPKM (P+I): 8.03 FPKM
JUN FPKM (P+I): 3.835 FPKM
JUNB FPKM (P+I): 55.036 FPKM
KBTBD11 FPKM (P+I): 2.434 FPKM
KCNK5 FPKM (P+I): 3.906 FPKM
KCTD11 FPKM (P+I): 3.399 FPKM
KIAA0922 FPKM (P+I): 12.92 FPKM
KIF1B FPKM (P+I): 11.727 FPKM
KIF3B FPKM (P+I): 13.87 FPKM
KLF2 FPKM (P+I): 1.971 FPKM
KSR1 FPKM (P+I): 4.79 FPKM
LAIR2 FPKM (P+I): 2.203 FPKM
LAMP3 FPKM (P+I): 6.412 FPKM
LAX1 FPKM (P+I): 8.052 FPKM
LDLRAP1 FPKM (P+I): 0.778 FPKM
LIME1 FPKM (P+I): 15.749 FPKM
LINC00152 FPKM (P+I): 32.822 FPKM
LINC00426 FPKM (P+I): 1.041 FPKM
LINC00528 FPKM (P+I): 5.759 FPKM
LINC00539 FPKM (P+I): 5.004 FPKM
LINC00977 FPKM (P+I): 0.741 FPKM
LOC729603 FPKM (P+I): 2.179 FPKM
LRRC8B FPKM (P+I): 3.555 FPKM
LRRC45 FPKM (P+I): 4.142 FPKM
LYPD3 FPKM (P+I): 2.727 FPKM
MAP2K3 FPKM (P+I): 41.815 FPKM
MAP2K6 FPKM (P+I): 1.149 FPKM
MBOAT2 FPKM (P+I): 3.773 FPKM
MCM4 FPKM (P+I): 26.368 FPKM
MCM5 FPKM (P+I): 37.057 FPKM
METRNL FPKM (P+I): 7.501 FPKM
MIR221 FPKM (P+I): 10.429 FPKM
MIR4435-1HG FPKM (P+I): 17.138 FPKM
MIR6891 FPKM (P+I): 24.428 FPKM
MMP10 FPKM (P+I): 11.973 FPKM
MRPL39 FPKM (P+I): 132.452 FPKM
MYO1D FPKM (P+I): 4.59 FPKM
MYO1G FPKM (P+I): 98.59 FPKM
MYO7B FPKM (P+I): 15.796 FPKM
NAMPT FPKM (P+I): 34.628 FPKM
NDFIP1 FPKM (P+I): 22.485 FPKM
NDFIP2 FPKM (P+I): 13.13 FPKM
NDST3 FPKM (P+I): 10.369 FPKM
NEIL3 FPKM (P+I): 9.418 FPKM
NEXN FPKM (P+I): 3.661 FPKM
NFE2L3 FPKM (P+I): 15.944 FPKM
NFKBIA FPKM (P+I): 39.193 FPKM
NFKBID FPKM (P+I): 6.668 FPKM
NFKBIE FPKM (P+I): 11.399 FPKM
NINJ1 FPKM (P+I): 11.769 FPKM
NKD2 FPKM (P+I): 3.385 FPKM
NKX3-1 FPKM (P+I): 7.464 FPKM
NLRC5 FPKM (P+I): 38.784 FPKM
NPY FPKM (P+I): 4.771 FPKM
NR4A1 FPKM (P+I): 52.553 FPKM
NR4A2 FPKM (P+I): 0.04 FPKM
NRROS FPKM (P+I): 36.775 FPKM
NT5M FPKM (P+I): 1.582 FPKM
NXN FPKM (P+I): 2.574 FPKM
OAS3 FPKM (P+I): 13.085 FPKM
OSBPL3 FPKM (P+I): 24.517 FPKM
PARP9 FPKM (P+I): 84.306 FPKM
PARP14 FPKM (P+I): 65.432 FPKM
PCBP3 FPKM (P+I): 4.527 FPKM
PDE3B FPKM (P+I): 9.108 FPKM
PEAK1 FPKM (P+I): 5.442 FPKM
PELI1 FPKM (P+I): 8.175 FPKM
PHEX FPKM (P+I): 0.213 FPKM
PHF7 FPKM (P+I): 3.968 FPKM
PHLDA1 FPKM (P+I): 65.703 FPKM
PIDD1 FPKM (P+I): 5.28 FPKM
PIM3 FPKM (P+I): 42.827 FPKM
PKIA FPKM (P+I): 13.962 FPKM
PLAU FPKM (P+I): 45.171 FPKM
PLEKHO1 FPKM (P+I): 47.519 FPKM
PLK3 FPKM (P+I): 5.257 FPKM
PMAIP1 FPKM (P+I): 26.095 FPKM
PMEPA1 FPKM (P+I): 3.548 FPKM
PODXL FPKM (P+I): 1.86 FPKM
POU3F2 FPKM (P+I): 1.044 FPKM
PPFIBP1 FPKM (P+I): 12.205 FPKM
PPM1H FPKM (P+I): 4.492 FPKM
PRKCA FPKM (P+I): 14.104 FPKM
PTK2 FPKM (P+I): 13.215 FPKM
PTPN22 FPKM (P+I): 6.37 FPKM
PTPRE FPKM (P+I): 14.031 FPKM
PWWP2B FPKM (P+I): 2.769 FPKM
PXMP2 FPKM (P+I): 5.624 FPKM
RAG1 FPKM (P+I): 0.251 FPKM
RAG2 FPKM (P+I): 0.173 FPKM
RAP1GAP2 FPKM (P+I): 0.368 FPKM
RAP1GAP FPKM (P+I): 1.878 FPKM
RDH10 FPKM (P+I): 5.856 FPKM
REL FPKM (P+I): 4.749 FPKM
RELB FPKM (P+I): 29.337 FPKM
RGS3 FPKM (P+I): 2.142 FPKM
RGS16 FPKM (P+I): 1.172 FPKM
RMI1 FPKM (P+I): 8.984 FPKM
RORB FPKM (P+I): 3.782 FPKM
S1PR1 FPKM (P+I): 0.737 FPKM
SAMD1 FPKM (P+I): 15.561 FPKM
SECISBP2L FPKM (P+I): 13.57 FPKM
SELPLG FPKM (P+I): 5.062 FPKM
SEMA7A FPKM (P+I): 26.567 FPKM
SERPINB2 FPKM (P+I): 2.905 FPKM
SERPINE1 FPKM (P+I): 6.785 FPKM
SH2B3 FPKM (P+I): 13.899 FPKM
SH2D5 FPKM (P+I): 1.469 FPKM
SH3BGRL3 FPKM (P+I): 408.163 FPKM
SH3RF2 FPKM (P+I): 27.941 FPKM
SHC4 FPKM (P+I): 0.663 FPKM
SIT1 FPKM (P+I): 48.56 FPKM
SIX6 FPKM (P+I): 15.688 FPKM
SLC2A3 FPKM (P+I): 45.525 FPKM
SLC2A4RG FPKM (P+I): 2.367 FPKM
SLC7A5 FPKM (P+I): 207.842 FPKM
SLC25A45 FPKM (P+I): 3.26 FPKM
SLCO3A1 FPKM (P+I): 3.481 FPKM
SLIT1 FPKM (P+I): 2.6 FPKM
SMIM14 FPKM (P+I): 7.677 FPKM
SOCS1 FPKM (P+I): 9.708 FPKM
SOCS3 FPKM (P+I): 8.922 FPKM
SOSTDC1 FPKM (P+I): 8.472 FPKM
SPRY2 FPKM (P+I): 16.882 FPKM
SREBF1 FPKM (P+I): 14.076 FPKM
ST3GAL6-AS1 FPKM (P+I): 9.039 FPKM
ST8SIA4 FPKM (P+I): 11.077 FPKM
STARD4 FPKM (P+I): 20.118 FPKM
STAT1 FPKM (P+I): 611.139 FPKM
STAT5A FPKM (P+I): 3.347 FPKM
STX11 FPKM (P+I): 2.733 FPKM
SYTL1 FPKM (P+I): 15.004 FPKM
TBC1D10C FPKM (P+I): 23.871 FPKM
TBC1D20 FPKM (P+I): 17.7 FPKM
TBX21 FPKM (P+I): 24.784 FPKM
THY1 FPKM (P+I): 3.994 FPKM
TIMP2 FPKM (P+I): 1.948 FPKM
TM4SF1 FPKM (P+I): 0.439 FPKM
TM7SF3 FPKM (P+I): 29.483 FPKM
TMEM229B FPKM (P+I): 6.813 FPKM
TMTC4 FPKM (P+I): 2.677 FPKM
TNFRSF4 FPKM (P+I): 2.933 FPKM
TNFRSF12A FPKM (P+I): 8.559 FPKM
TNFRSF14 FPKM (P+I): 12.35 FPKM
TNFSF9 FPKM (P+I): 2.568 FPKM
TNRC6C FPKM (P+I): 4.711 FPKM
TNS3 FPKM (P+I): 0.678 FPKM
TRAF1 FPKM (P+I): 11.176 FPKM
TRAT1 FPKM (P+I): 7.968 FPKM
TRIM22 FPKM (P+I): 2.908 FPKM
TSHR FPKM (P+I): 1.535 FPKM
TSPAN2 FPKM (P+I): 2.414 FPKM
TSPAN7 FPKM (P+I): 44.718 FPKM
TTC28 FPKM (P+I): 2.798 FPKM
TUBB2A FPKM (P+I): 7.594 FPKM
TUBB3 FPKM (P+I): 9.713 FPKM
UHRF1BP1L FPKM (P+I): 7.474 FPKM
USP30-AS1 FPKM (P+I): 6.464 FPKM
VANGL1 FPKM (P+I): 9.553 FPKM
VASH2 FPKM (P+I): 5.761 FPKM
VGF FPKM (P+I): 59.749 FPKM
XAF1 FPKM (P+I): 15.924 FPKM
XBP1 FPKM (P+I): 43.828 FPKM
XYLB FPKM (P+I): 1.506 FPKM
YBX2 FPKM (P+I): 1.555 FPKM
ZC3H12A FPKM (P+I): 13.36 FPKM
CD27 and CD70 expression (upon T-cell activation): inhibited CD27 and CD70
RNA levels of representative T-cell activation markers (IL2, IL3, NFATC1, CCL4, CCL20, CXCL8) (upon T-cell activation): reduced RNA levels of representative T-cell activation markers

From patent US20240376163A1, “PEPTIDE FOR INHIBITING CALCINEURIN AND USE THEREOF” (Seoul National University R&DB Foundation, priority 2023, published 2024)
